Results on four compounds are retold here after patent publication US20240270762A1, “PENICILLIN-BINDING PROTEIN INHIBITORS” (priority 2021, published 2024).

The structures appear in SMILES notation. pEC50, pIC50: −log10 of the molar value. Converted amounts (≈) assume the structure as drawn.

One experiment relates to E. coli AG100. The experiment in a line: microbe, parasite or virus in culture. It is filed as cell-based. The conditions noted are these: Escherichia coli, AG100, read-out: MIC E. coli AG100.
The subject of a further experiment is K. pneumoniae UMM. The experiment in a line: microbe, parasite or virus in culture. Particulars: Klebsiella pneumoniae, read-out: MIC K. pneumoniae UMM. Format: cell-based.
The subject of the next experiment is P. aeruginosa ATCC 35151. The experiment in a line: microbe, parasite or virus in culture. Format: cell-based. The conditions noted are these: Pseudomonas aeruginosa, ATCC35151, read-out: MIC P. aeruginosa ATCC 35151.
The subject of another experiment is E. coli AG100A. The experiment in a line: Broth microdilution MIC in CAMHB. It is filed as cell-based. The conditions noted are these: Escherichia coli, read-out: MIC E. coli AG100A.
Another experiment concerns P. aeruginosa ATCC 27853. The experiment in a line: microbe, parasite or virus in culture. The conditions noted are these: Pseudomonas aeruginosa, ATCC27853, read-out: MIC P. aeruginosa ATCC 27853. Format: cell-based.
The subject of experiment [1] is P. aeruginosa (ΔmexAB-oprM). The experiment in a line: Broth microdilution MIC in CAMHB. Format: cell-based. The conditions noted are these: Pseudomonas aeruginosa; read-out: MIC P. aeruginosa ΔmexAB-oprM.
The next experiment has as its system E. coli D22. The experiment in a line: microbe, parasite or virus in culture. It is filed as cell-based. The conditions noted are these: Escherichia coli, D22, read-out: MIC E. coli D22.
Another experiment has as its system K. pneumoniae SI-117. The experiment in a line: microbe, parasite or virus in culture. It is filed as cell-based. The conditions noted are these: Klebsiella pneumoniae, SI117, read-out: MIC K. pneumoniae SI-117.
The next experiment relates to A. baumannii ATCC 19606. The experiment in a line: microbe, parasite or virus in culture. Format: cell-based. Particulars: Acinetobacter baumannii, ATCC19606, read-out: MIC, A. baumannii ATCC 19606.
A further experiment has as its system E. coli ATCC 25922. The experiment in a line: microbe, parasite or virus in culture. It is filed as cell-based. Particulars: Escherichia coli, ATCC25922, read-out: MIC E. coli 25922.
Experiment [2] addresses T1, PBP3 from Escherichia coli (K-12) (Escherichia coli, UniProt P0AD68).
T1 construct: made in house
The experiment in a line: Bocillin-FL fluorescence polarization competition binding, E. coli PBP3. An excerpt:
(§1) To determine the ability of boronic acid-based test PBP inhibitors to bind Penicillin Binding Proteins (PBPs), Bocillin-FL (fluorescently-labeled penicillin V; ThermoFisher Scientific) was used in a fluorescence polarization (FP) competition binding assay to assess inhibitor binding to PBP3 from Escherichia coli (K-12), PBP3 from Pseudomonas aeruginosa (PAO1), PBP1a and PBP3 from Acinetobacter baumannii (ATCC 19606), and PBP2 from Neisseria gonorrhoeae (FA19). PBPs were cloned and purified as described previously (E. coli PBP3, King, D. T, et al., ACS Infectious Diseases 2015, 1, 175-184; P. aeruginosa PBP3, Han et. al., PNAS 2010, 107 (51), 22002-22007; A. baumannii PBPs, Penwell et. al., Antimicrob. Agents Chemother. 2015, 59 (3), 1680-1689; N. gonorrhoeae PBP2, Singh et. al., J. Biol. Chem. 2019, 294 (38), 14020-14032). To establish assay conditions for competition binding, enzyme titration/saturation binding experiments were initially performed. Bocillin-FL was prepared at 0.2 μM in a buffer comprised of 50 mM Hepes (pH 8.0), 300 mM NaCl and 10% (v/v) glycerol for reactions with E. coli, P. aeruginosa and N. gonorrhoeae PBPs, and 25 mM Tris (pH 8.0), 200 mM NaCl, 10% (v/v) glycerol and 0.005% (v/v) Tween 20 for reactions with A. baumannii PBPs. Saturation binding was performed by mixing 40 μl of PBP solutions ranging in concentrations from 0-24 μM with 40 μl of the 0.2 μM Bocillin-FL solution, in individual wells of a black 384-well microplate. FP was measured immediately upon mixing (Excitation, 490 nm; Emission, 520 nm; g-factor, 0.96), using a Cytation3 (BioTek) microplate reader and measured continuously for up to 120 minutes. The FP response stabilized after 15 minutes for P. aeruginosa and A. baumannii PBP3, 30 minutes for E. coli PBP3 and A. baumannii PBP1a, and less than 1 minute for N. gonorrhoeae PBP2. […] The competition binding assay (80 μl final volume) was validated using beta-lactams and PBPs at final concentrations of: 1.5 μM for E. coli PBP3; 0.75 μM for P. aeruginosa PBP3; 1 μM for A. baumannii PBP1a; 0.2 μM for A. baumannii PBP3; and 0.25 μM for N. gonorrhoeae PBP2. Bocillin-FL was at 0.1 μM (0.05 μM with A. baumannii PBP1a) and beta-lactam concentrations ranged from 0-1,000 μM. E. coli PBP3 was incubated with increasing concentrations of ampicillin in a black 384-well microplate (Corning) for 30 minutes. P. aeruginosa PBP3 was incubated for 15 minutes with aztreonam, whereas A. baumannii PBP1a and PBP3 were incubated for 15 minutes with meropenem, and then Bocillin-FL was added followed immediately by the FP measurement for up to 60 minutes. […] The beta-lactam potency was reported as the concentration of beta-lactam required to reduce the amount of PBP bound-Bocillin-FL by 50% (EC50). […] The EC50 of aztreonam was determined to be <0.5 μM for P. aeruginosa PBP3. […] Binding assays for boronic acid PBP inhibitors were performed in an identical fashion for the respective PBPs.

The next experiment has as its system K. pneumoniae 848844. The experiment in a line: microbe, parasite or virus in culture. It is filed as cell-based. Particulars: Klebsiella pneumoniae, 848844, read-out: MIC K. pneumoniae 848844.
Experiment [3] deals with T2, PBP3 from Pseudomonas aeruginosa (PAO1) (Pseudomonas aeruginosa, UniProt G3XD46).
T2 construct: made in house
T2 sequence (G3XD46 whole entry): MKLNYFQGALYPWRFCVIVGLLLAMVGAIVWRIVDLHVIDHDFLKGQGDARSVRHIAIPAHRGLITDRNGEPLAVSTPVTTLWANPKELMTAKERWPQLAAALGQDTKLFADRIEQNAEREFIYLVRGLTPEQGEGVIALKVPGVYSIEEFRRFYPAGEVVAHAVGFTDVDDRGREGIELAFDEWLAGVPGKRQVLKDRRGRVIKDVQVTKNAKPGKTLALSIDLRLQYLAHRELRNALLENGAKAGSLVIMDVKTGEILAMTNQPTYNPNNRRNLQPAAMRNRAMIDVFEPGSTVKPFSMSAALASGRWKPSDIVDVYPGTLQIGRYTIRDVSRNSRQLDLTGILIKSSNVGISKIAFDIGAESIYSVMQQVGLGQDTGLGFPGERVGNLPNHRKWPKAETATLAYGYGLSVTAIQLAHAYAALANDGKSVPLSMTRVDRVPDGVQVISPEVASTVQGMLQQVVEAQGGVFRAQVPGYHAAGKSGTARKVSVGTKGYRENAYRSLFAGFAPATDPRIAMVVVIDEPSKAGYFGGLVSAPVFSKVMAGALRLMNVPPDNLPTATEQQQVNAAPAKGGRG
The experiment in a line: Bocillin-FL fluorescence polarization competition binding, P. aeruginosa PBP3. Particulars: Binding affinity to P. aeruginosa PBP3; fluorescence polarization competition binding assay using Bocillin-FL; read-out: P. aeruginosa PBP3 Potency.
Description: as §1

In another experiment the test system is E. coli 901C. The experiment in a line: microbe, parasite or virus in culture. Format: cell-based. Particulars: Escherichia coli, read-out: MIC E. coli 901C.
Another experiment deals with N. gonorrhoeae WHO Z. The experiment in a line: Liquid broth MIC in Fastidious broth. Particulars: Neisseria gonorrhoeae, read-out: Minimum Inhibitory Concentration, WHO Z.
In the next experiment the test system is N. gonorrhoeae FA1090. The experiment in a line: Liquid broth MIC in Fastidious broth. The conditions noted are these: Neisseria gonorrhoeae, FA1090, read-out: Minimum Inhibitory Concentration, FA 1090.
Experiment [4] concerns N. gonorrhoeae ATCC 49226. The experiment in a line: Liquid broth MIC in Fastidious broth. Particulars: Neisseria gonorrhoeae, ATCC49226, read-out: Minimum Inhibitory Concentration, ATCC 49226.

T1 sequence (P0AD68 1-577): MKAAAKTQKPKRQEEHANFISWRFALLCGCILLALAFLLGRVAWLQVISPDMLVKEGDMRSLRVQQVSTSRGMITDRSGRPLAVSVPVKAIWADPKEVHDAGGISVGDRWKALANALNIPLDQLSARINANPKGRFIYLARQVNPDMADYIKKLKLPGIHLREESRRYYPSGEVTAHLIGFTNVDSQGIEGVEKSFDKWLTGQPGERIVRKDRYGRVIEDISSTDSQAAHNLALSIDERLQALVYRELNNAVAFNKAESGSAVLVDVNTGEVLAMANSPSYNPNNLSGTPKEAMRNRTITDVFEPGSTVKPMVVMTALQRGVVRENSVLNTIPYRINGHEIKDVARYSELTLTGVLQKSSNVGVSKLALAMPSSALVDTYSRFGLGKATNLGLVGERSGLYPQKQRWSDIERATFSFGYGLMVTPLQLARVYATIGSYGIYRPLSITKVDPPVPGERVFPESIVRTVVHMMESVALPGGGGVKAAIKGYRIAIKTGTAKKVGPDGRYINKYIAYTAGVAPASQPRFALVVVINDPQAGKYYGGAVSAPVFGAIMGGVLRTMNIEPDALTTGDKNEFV

As to `O=C(N[C@H](C(=O)N[C@H]1Cc2cccc(C(=O)O)c2OB1O)c1ccc(P(=O)(O)O)cc1)c1cnc2ccnn2c1` (single isomer, unassigned) [Example 186], the MIC in the experiment with E. coli AG100 is over 128 µg/mL; in the experiment on K. pneumoniae UMM it was over 128 µg/mL; in the experiment on P. aeruginosa ATCC 35151, 2 to 4 µg/mL (≈ 3.54 to 7.08 µM); with E. coli AG100A, over 128 µg/mL; with P. aeruginosa ATCC 27853, over 128 µg/mL; in experiment [1], over 128 µg/mL. For the same compound, the MIC was over 128 µg/mL in the experiment with E. coli D22; over 128 µg/mL in the experiment with K. pneumoniae SI-117; over 128 µg/mL with A. baumannii ATCC 19606; over 128 µg/mL in the experiment with E. coli ATCC 25922; over 128 µg/mL with K. pneumoniae 848844; 8 to 16 µg/mL (≈ 14.2 to 28.3 µM) with E. coli 901C. The same compound gave a pEC50 in experiment [2] of under 3.60. The pIC50 in experiment [3] was 4.30 to 5.00.

For the compound `O=C(N[C@@H](C(=O)N[C@H]1Cc2cccc(C(=O)O)c2OB1O)c1ccc(P(=O)(O)O)cc1)c1cnc2ccnn2c1` (single isomer, unassigned) [Example 187], the MIC is over 128 µg/mL with E. coli AG100; over 128 µg/mL with K. pneumoniae UMM; 2 to 4 µg/mL (≈ 3.54 to 7.08 µM) in the experiment with P. aeruginosa ATCC 35151; over 128 µg/mL in the experiment on E. coli AG100A; over 128 µg/mL in the experiment on P. aeruginosa ATCC 27853; 32 to 64 µg/mL (≈ 56.6 to 113 µM) in experiment [1]. For the same compound, the MIC in the experiment on E. coli D22 is 32 to 64 µg/mL (≈ 56.6 to 113 µM); in the experiment on K. pneumoniae SI-117, over 128 µg/mL; in the experiment on A. baumannii ATCC 19606, over 128 µg/mL; in the experiment with E. coli ATCC 25922 it was over 128 µg/mL; in the experiment with K. pneumoniae 848844 it was over 128 µg/mL; with E. coli 901C, 8 to 16 µg/mL (≈ 14.2 to 28.3 µM). In experiment [2], this compound had a pEC50 of 4.30 to 5.00. In addition, the pIC50 in experiment [3] was over 5.00.

Consider `O=C(N[C@@H](C(=O)N[C@H]1Cc2cccc(C(=O)O)c2OB1O)c1ccc(P(=O)(O)O)cc1)c1cnc2cccn2c1` (single isomer, unassigned) [Example 499], for which the MIC in the experiment on E. coli AG100 was over 128 µg/mL; in the experiment on K. pneumoniae UMM it was over 128 µg/mL; in the experiment on P. aeruginosa ATCC 35151, 2 to 4 µg/mL (≈ 3.54 to 7.09 µM); with E. coli AG100A, 32 to 64 µg/mL (≈ 56.7 to 113 µM); with P. aeruginosa ATCC 27853 it was over 128 µg/mL; in [1], 32 to 64 µg/mL (≈ 56.7 to 113 µM). The MIC in the experiment with E. coli D22 is 32 to 64 µg/mL (≈ 56.7 to 113 µM); in the experiment with K. pneumoniae SI-117 it was over 128 µg/mL; in the experiment with A. baumannii ATCC 19606, over 128 µg/mL; in the experiment on E. coli ATCC 25922 it was over 128 µg/mL; with K. pneumoniae 848844 it was over 128 µg/mL; in the experiment with E. coli 901C it was 2 to 4 µg/mL (≈ 3.54 to 7.09 µM). This compound also gave a pEC50 in experiment [2] of 4.30 to 5.00. In addition, in experiment [3], the pIC50 is over 5.00.

As for `O=C(NC(C(=O)N[C@H]1Cc2cccc(C(=O)O)c2OB1O)c1ccc(P(=O)(O)O)cc1)c1ccc2ccnn2c1` (stereo partly drawn) [Example 498, (3R)-2-hydroxy-3-(2-(4-phosphonophenyl)-2-(pyrazolo[1,5-a]pyridine-6-carboxamido)acetamido)-3,4-dihydro-2H-benzo[e][1,2]oxaborinine-8-carboxylic acid], the MIC in the experiment on E. coli AG100 is over 128 µg/mL; in the experiment with N. gonorrhoeae WHO Z, over 64 µg/mL; in the experiment with K. pneumoniae UMM, over 128 µg/mL; in the experiment with P. aeruginosa ATCC 35151 it was 8 to 16 µg/mL (≈ 14.2 to 28.4 µM); in the experiment on E. coli AG100A it was over 128 µg/mL; with P. aeruginosa ATCC 27853, over 128 µg/mL. Moreover, the MIC was over 128 µg/mL in experiment [1]; 4 to 8 µg/mL (≈ 7.09 to 14.2 µM) in the experiment with N. gonorrhoeae FA1090; over 128 µg/mL in the experiment with E. coli D22; over 64 µg/mL in experiment [4]; over 128 µg/mL in the experiment on K. pneumoniae SI-117; over 128 µg/mL in the experiment on A. baumannii ATCC 19606. For the same compound, the MIC with E. coli ATCC 25922 is over 128 µg/mL; in the experiment on K. pneumoniae 848844, over 128 µg/mL; with E. coli 901C, 32 to 64 µg/mL (≈ 56.7 to 113 µM). In addition, the pEC50 in [2] was 3.60 to 4.30. In addition, the pIC50 in experiment [3] is 4.30 to 5.00.
